The text below walks through data of patent US7956069B2, “Compounds” (AstraZeneca AB, priority 2006, dated 2011).

This experiment has as its target T1, hM1 (human Muscarinic receptor subtype 1) (Homo sapiens, UniProt P11229).
T1 construct: expressed in transfected cells; host or cells: CHO cells (Chinese hamster ovary cells, ATCC)
T1 sequence (P11229 1-460): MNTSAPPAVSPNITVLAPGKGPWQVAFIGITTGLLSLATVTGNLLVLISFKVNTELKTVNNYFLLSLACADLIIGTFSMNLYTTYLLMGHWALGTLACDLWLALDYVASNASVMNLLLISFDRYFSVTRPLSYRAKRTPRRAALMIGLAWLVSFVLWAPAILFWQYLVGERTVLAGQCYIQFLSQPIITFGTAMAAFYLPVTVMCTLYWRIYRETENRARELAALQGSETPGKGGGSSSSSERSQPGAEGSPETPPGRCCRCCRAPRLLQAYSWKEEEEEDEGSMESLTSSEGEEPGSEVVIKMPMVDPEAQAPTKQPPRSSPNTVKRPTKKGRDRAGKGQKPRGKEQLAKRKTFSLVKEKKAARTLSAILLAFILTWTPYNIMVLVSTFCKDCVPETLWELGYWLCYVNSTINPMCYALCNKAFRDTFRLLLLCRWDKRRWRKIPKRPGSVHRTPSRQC
Description: Human M1 calcium mobilization FLIPR assay. In kind it is cell-based. The settings on record: CHO cells expressing hM1, Ca2+ release. As for the experimental part:
Biological Evaluation Human M1, Rat M1, Human M3 and Human M5 Calcium Mobilization FLIPR™ Assay
The compound activity in the present invention (EC50 or IC50) was measured using a 384 plate-based imaging assay that monitors drug induced intracellular Ca^2+ release in whole cells. Activation of hM1 (human Muscarinic receptor subtype 1, gene bank access NM_000738), rM1 (rat Muscarinic receptor subtype 1, gene bank access NM_080773), hM3 (human Muscarinic receptor subtype 3, gene bank access NM_000740NM_000740) and hM5 (human Muscarinic receptor subtype 5, gene bank access NM_0121258), receptors expressed in CHO cells (Chinese hamster ovary cells, ATCC) was quantified in a Molecular Devices FLIPR II™ instrument as an increase in fluorescent signal. Inhibition of hM3 and hM5 by compounds was determined by the decrease in fluorescent signal in response to 20 nM carbachol activation.
CHO cells were plated in 384-black polylysine coated plate (Costar) at 8000 cells/well/50 μl for 24 hours or 4000 cells/well for 48 hours in a humidified incubator (5% CO2 and 37° C.) in DMEM/F12 medium without selection agent. Prior to the experiment the cell culture medium was removed from the plates by inversion. A loading solution of 30 μl of Hank's balanced salt solution, 10 mM Hepes and 2.5 mM Probenicid at Ph 7.4 (Cat no. 311-520-VL, Wisent) with 2 μM calcium indicator dye (FLUO-3AM, Molecular Probes F14202) was added to each well. Plates were incubated at 37° C. for 60 minutes prior to start the experiment. The incubation was terminated by washing the cells four times in assay buffer, leaving a residual 25 μl buffer per well. Cell plates were then transferred to the FLIPR, ready for compound additions.
The day of experiment, carbachol and compounds were diluted in three-fold concentration range (10 points serial dilution) for addition by FLIPR instrument. For all calcium assays, a baseline reading was taken for 30 seconds followed by the addition of 12.5 μl (25 μl for hM1 and rM1) of compounds, resulting in a total well volume of 37.5 μl (50 μl for hM1 and rM1). Data were collected every 1.6 seconds for 300 seconds. For hM3 and hM5 an additional 12.5 μl of carbachol (20 nM final) was added at 300 seconds. After this addition of carbachol (producing a final volume of 50 μl), the FLIPR continued to collect data every 2 seconds for 240 seconds. The fluorescence emission was read using filter 1 (emission 520-545 nm) by the FLIPR on board CCD camera.
Calcium mobilization output data were calculated as the maximal relative fluorescence unit (RFU) minus the minal value for both compound and agonist reading frame (except for hM1 and rM1 using only the maximal RFU). Data were analyzed using sigmoidal fits of a non-linear curve-fitting program (XLfit version 5.0.6 from ID Business Solutions Limited, Guildford, UK). All EC50 and IC50 values are reported as arithmetic means±standard error of mean of ‘n’ independent experiments.
For orientation: Calcium flux is commonly read through the fluorescence of an indicator in the cells.
As a reminder, the EC50 is the concentration giving half of the maximal effect. Consider `CCOC(=O)N1CC[C@H](N2CCC(N3C(=O)N[C@H]4CCCC[C@@H]43)CC2)C1`, for which the EC50 amounted to 0.005 µM. Turning to `CCOC(=O)N1CCC(N2CCC(N3C(=O)N[C@H]4CCCC[C@@H]43)CC2)CC1`, the EC50 amounted to 0.0011 µM. Consider `CC(C)OC(=O)N1CCC(N2CCC(N3C(=O)C[C@H]4CCCC[C@@H]43)CC2)CC1`, for which the EC50 was 0.014 µM. The figure for `O=C(C1CC1)N1CCC(N2CCC(N3C(=O)N[C@@H]4CCCC[C@H]43)CC2)CC1` is 0.046 µM; for `O=C(C1CCCC1)N1CCC(N2CCC(N3C(=O)N[C@H]4CCCC[C@@H]43)CC2)CC1` it is 0.095 µM.

As for `O=C1CCCN1CCC(=O)N1CCC(N2CCC(N3C(=O)N[C@@H]4CCCC[C@H]43)CC2)CC1`, the EC50 is 0.0092 µM. As for `O=C1CCCN1CCC(=O)N1CCC(N2CCC(N3C(=O)N[C@H]4CCCC[C@@H]43)CC2)CC1`, the figure is 0.0068 µM; as for `CC(C)OC(=O)N1CCC(N2CCC(N3C(=O)N[C@H]4CCCC[C@@H]43)CC2)CC1`, 0.0046 µM; as for `CN1C(=O)N(C2CCN(C3CCN(C(=O)C4CC4)CC3)CC2)[C@H]2CCCC[C@@H]21`, 0.094 µM. Consider `CC(C)OC(=O)N1CCC(N2CCC(N3C(=O)N[C@@H]4CCCC[C@@H]43)CC2)CC1`, for which the EC50 is 0.015 µM. As for `COc1ccccc1C(=O)N1CCC(N2CCC(N3C(=O)N[C@@H]4CCCC[C@H]43)CC2)CC1`, the figure is 0.2 µM; as for `O=C(OCCF)N1CCC(N2CCC(N3C(=O)N[C@H]4CCCC[C@@H]43)CC2)CC1`, 0.0025 µM.
